# Where two headings read alike, the source gives them in different places. Where a SMILES comes first, the peptide text is derived from it. The star is where a group is joined. Myristoyl = CCCCCCCCCCCCCC(=O)*
# Tests used:
# collagen = settings: cited from earlier work
# Laminin = assay: ELISA assay of laminin synthesis in normal human fibroblasts; format: cell-based; settings: NHF, 72 h
# Protocol: (§1) Normal human fibroblasts (NHF) in culture are contacted with the products to be tested or their excipient (negative control) for 72 h. After the contact, the culture supernatants are removed and the synthesis of dermal macromolecules are estimated by ELISA assays. An estimation of cell viability is performed by Hoechst assay and used to weight the obtained data.
# Collagen IV = assay: ELISA assay of collagen IV synthesis in normal human fibroblasts; format: cell-based; settings: NHF, 72 h
# Protocol: as §1
# Ceramide 2 = Ceramide 2 immunolabeling in keratinocytes; format: cell-based, human; settings: for Ceramide 2 % variation: immunolabeling, human keratinocytes
# Text: (§2) Human keratinocytes are brought to just confluence in KSFMc medium. The contact with the actives and therefore their evaluation is then done in KSFMc medium alone or with calcium (0.8 mm)*. Visual evaluation of differentiation takes place after several days of contact (2, 4, 8 days/3, 5 and 7 for example). * Calcium differentiation allows the creation of link structure between the cells which leads to a better attachment of the basal layers.
# (§3) On the same cultures as those presented before, immunolabeling of filaggrin 1 and ceramides are realised on layers fixed with specific antibodies. Quantification by image analysis is used to estimate the synthesis of these targets in keratinocytes. A counter-colouration of the nucleus using Hoechst dye is used to weight the obtained data.
# Elastin [1] = assay: ELISA assay of elastin synthesis in normal human fibroblasts; format: cell-based; settings: NHF, 72 h
# Protocol: as §1
# Collagen I [2] = assay: ELISA assay of collagen I synthesis in normal human fibroblasts; format: cell-based; settings: NHF, 72 h
# Protocol: as §1
# Elastin [3] = assay: Immunofluorescence dosage of elastin in normal human fibroblasts; format: cell-based; settings: NHF, 14 days
# Protocol: (§4) Normal human fibroblasts (NHF) are cultured for 24 h. The cells are contacted or not with the products to be tested or their excipient at various concentrations for 6 days for the collagen I or 14 days for elastin (DMEMc 5% FCS). The synthesis of collagen I and elastin produced by the cells in the form of extracellular matrix is then quantified by immuno-marking on the fixed layers. A counting of the nuclei labeled with Hoechst is performed in parallel in order to have an estimate of the viability and in order to weight the data.
# neutral lipids = assay: Marking of neutral lipids with red oil in keratinocytes; format: cell-based, human; settings: for Neutral lipids % variation: red oil marking, human keratinocytes
# Text: as §2
# On the same cultures as presented before, a marking of neutral lipids with red oil is realised on the fixed layers. Quantification by image analysis is used to estimate lipid synthesis in keratinocytes. A counter-colouration of the nucleus using Hoechst dye is used to weight the obtained data.
# filaggrin 1 = assay: Filaggrin 1 immunolabeling in keratinocytes; format: cell-based, human; settings: for Filagrin 1 % variation: immunolabeling, human keratinocytes
# Text: as §2, §3
# Collagen I [4] = assay: Immunofluorescence dosage of collagen I in normal human fibroblasts; format: cell-based; settings: NHF, 6 days
# Protocol: as §4
# Fibronectin = assay: ELISA assay of fibronectin synthesis in normal human fibroblasts; format: cell-based; settings: NHF, 72 h
# Protocol: as §1
# [5] = at the level of the differentiation networks
compound,measurement,setting,value
Ile-Pro-Pro-Leu (IPPL) [tetrapeptide of WO 2010/071132 derived from fermented milk],collagen production by fibroblastes with regard to the control,collagen; concentration of about 44 ppm,about +10%
Asn-Ile-Pro-Pro-Leu (NIPPL) [pentapeptide of WO 2010/071132 derived from fermented milk],collagen production by fibroblastes with regard to the control,collagen; concentration of about 55 ppm,about +30%
"CCCCCCCCCCCCCC(=O)N1CCC[C@H]1C(=O)N1CCC[C@H]1C(=O)N[C@@H](CC(C)C)C(=O)O [Myr-PPL-OH, myristoyl-prolyl-prolyl-leucine] (Myristoyl-Pro-Pro-Leu-OH)",Laminin % change/control,Laminin; 1 ppm,+29%
same,Laminin % change/control,Laminin; 3 ppm,+83%
same,Laminin % change/control,Laminin; 5 ppm,+53%
same,Laminin % change/control,Laminin; 7 ppm,+41%
same,Collagen IV % change/control,Collagen IV; 1 ppm,+38%
same,Collagen IV % change/control,Collagen IV; 3 ppm,+51%
same,Collagen IV % change/control,Collagen IV; 5 ppm,+83%
same,Collagen IV % change/control,Collagen IV; 7 ppm,+159%
same,Ceramide 2 % variation,Ceramide 2; 2 ppm,+137 (nsd) %
same,Ceramide 2 % variation,Ceramide 2; 4 ppm,+240 (p < 0.01) %
same,Ceramide 2 % variation,Ceramide 2; 6 ppm,+268 (p < 0.01) %
same,ceramides in the human keratinocytes,Ceramide 2; [5],increases
same,Elastin % change/control,Elastin [1]; 5 ppm,+86%
same,Elastin % change/control,Elastin [1]; 7 ppm,+137%
same,Collagen I % change/control,Collagen I [2]; 1 ppm,+34%
same,Collagen I % change/control,Collagen I [2]; 3 ppm,+59%
same,Collagen I % change/control,Collagen I [2]; 5 ppm,+87%
same,Elastin % change/control,Elastin [3]; 2 ppm,+183%
same,Elastin % change/control,Elastin [3]; 3 ppm,+259%
same,Elastin % change/control,Elastin [3]; 7 ppm,+145%
same,Neutral lipids % variation,neutral lipids; 4 ppm,+394 (p < 0.01) %
same,Neutral lipids % variation,neutral lipids; 6 ppm,+570 (p < 0.01) %
same,neutral lipids in the human keratinocytes,neutral lipids; [5],increases
same,Filagrin 1 % variation,filaggrin 1; 2 ppm,+564 (p < 0.01) %
same,Filagrin 1 % variation,filaggrin 1; 4 ppm,+840 (p < 0.01) %
same,Filagrin 1 % variation,filaggrin 1; 6 ppm,+172 (p < 0.01) %
same,filaggrin 1 in the human keratinocytes,filaggrin 1; [5],increases
same,Collagen I % change/control,Collagen I [4]; 3 ppm,+68%
same,Collagen I % change/control,Collagen I [4]; 7 ppm,+95%
same,Fibronectin % change/control,Fibronectin; 3 ppm,+73%
same,Fibronectin % change/control,Fibronectin; 5 ppm,+41%
same,Fibronectin % change/control,Fibronectin; 7 ppm,+66%

# From patent US10668000B2, “Peptides, compositions comprising them and uses in particular cosmetic uses” (SEDERMA, priority 2014, dated 2020)
